PubChem BioAssay (NCI)
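GI50 marks 50% less growth. TGI: total growth inhibition.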

Key:
Assay in all cases: NCI anticancer screen, dose series, 384-well format
MDA-MB-435 melanoma = tested on: MDA-MB-435 melanoma
786-0 renal = tested on: 786-0 renal
SF-295 CNS = tested on: SF-295 CNS
SF-268 CNS = tested on: SF-268 CNS
OVCAR-3 ovarian = tested on: OVCAR-3 ovarian
COLO 205 colon = tested on: COLO 205 colon
DU-145 prostate = tested on: DU-145 prostate
SK-OV-3 ovarian = tested on: SK-OV-3 ovarian
T-47D breast = tested on: T-47D breast
HCT-15 colon = tested on: HCT-15 colon
CCRF-CEM leukemia = tested on: CCRF-CEM leukemia
HT29 colon = tested on: HT29 colon
ACHN renal = tested on: ACHN renal
MDA-MB-231 breast = tested on: MDA-MB-231 breast
TK-10 renal = tested on: TK-10 renal
RPMI-8226 leukemia = tested on: RPMI-8226 leukemia
K-562 leukemia = tested on: K-562 leukemia
NCI/ADR-RES ovarian = tested on: NCI/ADR-RES ovarian
NCI-H226 lung = tested on: NCI-H226 lung
KM12 colon = tested on: KM12 colon
HCT-116 colon = tested on: HCT-116 colon
CAKI-1 renal = tested on: CAKI-1 renal
HL-60(TB) leukemia = tested on: HL-60(TB) leukemia
SK-MEL-5 melanoma = tested on: SK-MEL-5 melanoma
A549 NSCLC = tested on: A549 NSCLC
SN12C renal = tested on: SN12C renal
SF-539 CNS = tested on: SF-539 CNS
U251 glioblastoma = tested on: U251 glioblastoma
NCI-H322M lung = tested on: NCI-H322M lung
UACC-257 melanoma = tested on: UACC-257 melanoma
SNB-19 CNS = tested on: SNB-19 CNS
MDA-MB-468 breast = tested on: MDA-MB-468 breast
UACC-62 melanoma = tested on: UACC-62 melanoma
NCI-H522 lung = tested on: NCI-H522 lung
SK-MEL-28 melanoma = tested on: SK-MEL-28 melanoma
EKVX NSCLC = tested on: EKVX NSCLC
HCC-2998 colon = tested on: HCC-2998 colon
NCI-H460 NSCLC = tested on: NCI-H460 NSCLC
RXF 393 renal = tested on: RXF 393 renal
HOP-92 NSCLC = tested on: HOP-92 NSCLC
BT-549 breast = tested on: BT-549 breast
OVCAR-8 ovarian = tested on: OVCAR-8 ovarian
OVCAR-5 ovarian = tested on: OVCAR-5 ovarian
M14 melanoma = tested on: M14 melanoma
SW-620 colon = tested on: SW-620 colon
SNB-75 CNS = tested on: SNB-75 CNS
OVCAR-4 ovarian = tested on: OVCAR-4 ovarian
MOLT-4 leukemia = tested on: MOLT-4 leukemia
UO-31 renal = tested on: UO-31 renal
MALME-3M melanoma = tested on: MALME-3M melanoma
HS 578T breast = tested on: HS 578T breast
LOX IMVI melanoma = tested on: LOX IMVI melanoma
IGROV1 ovarian = tested on: IGROV1 ovarian
MCF7 breast = tested on: MCF7 breast
NCI-H23 lung = tested on: NCI-H23 lung
PC-3 prostate = tested on: PC-3 prostate
A498 renal = tested on: A498 renal
HOP-62 NSCLC = tested on: HOP-62 NSCLC

O=C(c1ccc(F)c(F)c1Nc1ccc(I)cc1F)N1CC(O)([C@H]2CCCCN2)C1 was tested, and the GI50 (MDA-MB-435 melanoma) was 415 nM, the TGI (MDA-MB-435 melanoma) was 11600 nM and the GI50 ([…]-0 renal) was 1240 nM. For the same compound, the TGI (786-0 renal) was 2590 nM, the GI50 (SF-295 CNS) was 13400 nM and the TGI (SF-295 CNS) was 26300 nM. For the same compound, the GI50 (SF-268 CNS) was 1700 nM, the TGI (SF-268 CNS) was 5370 nM and the GI50 (OVCAR-3 ovarian) was 3430 nM. For the same compound, the TGI (OVCAR-3 ovarian) was 13700 nM, the GI50 (COLO 205 colon) was 101 nM and the TGI (COLO 205 colon) was 589 nM. It also gave a GI50 (DU-145 prostate) of 3810 nM, a TGI (DU-145 prostate) of 14800 nM and a GI50 (SK-OV-3 ovarian) of 4990 nM. The TGI (SK-OV-3 ovarian) was 17800 nM, the GI50 (T-47D breast) was 2650 nM and the TGI (T-47D breast) was 6460 nM. It also gave a GI50 (HCT-15 colon) of 3330 nM, a TGI (HCT-15 colon) of 14500 nM and a GI50 (CCRF-CEM leukemia) of 1930 nM. The TGI (CCRF-CEM leukemia) was 3570 nM, the GI50 (HT29 colon) was 185 nM and the TGI (HT29 colon) was 1350 nM. The GI50 (ACHN renal) was 1870 nM, the TGI (ACHN renal) was 15400 nM and the GI50 (MDA-MB-231 breast) was 477 nM. For the same compound, the TGI (MDA-MB-231 breast) was 3630 nM, the GI50 (TK-10 renal) was 3120 nM and the TGI (TK-10 renal) was 11800 nM. The GI50 (RPMI-8226 leukemia) was 1780 nM, the TGI (RPMI-8226 leukemia) was 4380 nM and the GI50 (K-562 leukemia) was 1170 nM. For the same compound, the TGI (K-562 leukemia) was 2420 nM, the GI50 (NCI/ADR-RES ovarian) was 9210 nM and the TGI (NCI/ADR-RES ovarian) was 21300 nM. The GI50 (NCI-H226 lung) was 1640 nM, the TGI (NCI-H226 lung) was 10200 nM and the GI50 (KM12 colon) was 660 nM. It also gave a TGI (KM12 colon) of 2750 nM, a GI50 (HCT-116 colon) of 615 nM and a TGI (HCT-116 colon) of 2060 nM. It also gave a GI50 (CAKI-1 renal) of 994 nM, a TGI (CAKI-1 renal) of 14400 nM and a GI50 (HL-60(TB) leukemia) of 212 nM. For the same compound, the TGI (HL-60(TB) leukemia) was 1260 nM, the GI50 (SK-MEL-5 melanoma) was 281 nM and the TGI (SK-MEL-5 melanoma) was 1620 nM. The GI50 (A549 NSCLC) was 807 nM, the TGI (A549 NSCLC) was 2610 nM and the GI50 (SN12C renal) was 1520 nM. For the same compound, the TGI (SN12C renal) was 13200 nM, the GI50 (SF-539 CNS) was 1620 nM and the TGI (SF-539 CNS) was 3020 nM. The GI50 (U251 glioblastoma) was 2570 nM, the TGI (U251 glioblastoma) was 11300 nM and the GI50 (NCI-H322M lung) was 1510 nM. For the same compound, the TGI (NCI-H322M lung) was 13700 nM, the GI50 (UACC-257 melanoma) was 156 nM and the TGI (UACC-257 melanoma) was 428 nM. The GI50 (SNB-19 CNS) was 4050 nM, the TGI (SNB-19 CNS) was 17300 nM and the GI50 (MDA-MB-468 breast) was 2730 nM. It also gave a TGI (MDA-MB-468 breast) of 5070 nM, a GI50 (UACC-62 melanoma) of 104 nM and a TGI (UACC-62 melanoma) of 378 nM. It also gave a GI50 (NCI-H522 lung) of 4330 nM, a TGI (NCI-H522 lung) of 16900 nM and a GI50 (SK-MEL-28 melanoma) of 187 nM. For the same compound, the TGI (SK-MEL-28 melanoma) was 528 nM, the GI50 (EKVX NSCLC) was 2750 nM and the TGI (EKVX NSCLC) was 12600 nM. It also gave a GI50 (HCC-2998 colon) of 200 nM, a TGI (HCC-2998 colon) of 1210 nM and a GI50 (NCI-H460 NSCLC) of 995 nM. It also gave a TGI (NCI-H460 NSCLC) of 2280 nM, a GI50 (RXF 393 renal) of 1510 nM and a TGI (RXF 393 renal) of 3180 nM. It also gave a GI50 (HOP-92 NSCLC) of 888 nM, a TGI (HOP-92 NSCLC) of 2170 nM and a GI50 (BT-549 breast) of 2250 nM. It also gave a TGI (BT-549 breast) of 5840 nM, a GI50 (OVCAR-8 ovarian) of 6520 nM and a TGI (OVCAR-8 ovarian) of 19600 nM. It also gave a GI50 (OVCAR-5 ovarian) of 668 nM, a TGI (OVCAR-5 ovarian) of 11900 nM and a GI50 (M14 melanoma) of 51.2 nM. It also gave a TGI (M14 melanoma) of 220 nM, a GI50 (SW-620 colon) of 371 nM and a TGI (SW-620 colon) of 10400 nM. The GI50 (SNB-75 CNS) was 1620 nM, the TGI (SNB-75 CNS) was 4340 nM and the GI50 (OVCAR-4 ovarian) was 10400 nM. It also gave a TGI (OVCAR-4 ovarian) of 22200 nM, a GI50 (MOLT-4 leukemia) of 1620 nM and a TGI (MOLT-4 leukemia) of 3000 nM. The GI50 (UO-31 renal) was 1610 nM, the TGI (UO-31 renal) was 5390 nM and the GI50 (MALME-3M melanoma) was 31.8 nM. The TGI (MALME-3M melanoma) was 118 nM, the GI50 (HS 578T breast) was 4160 nM and the TGI (HS 578T breast) was 16300 nM. It also gave a GI50 (LOX IMVI melanoma) of 389 nM, a TGI (LOX IMVI melanoma) of 1660 nM and a GI50 (IGROV1 ovarian) of 500 nM. The TGI (IGROV1 ovarian) was 2990 nM, the GI50 (MCF7 breast) was 1880 nM and the TGI (MCF7 breast) was 3620 nM. The GI50 (NCI-H23 lung) was 422 nM, the TGI (NCI-H23 lung) was 2050 nM and the GI50 (PC-3 prostate) was 5640 nM. For the same compound, the TGI (PC-3 prostate) was 16800 nM, the GI50 (A498 renal) was 1220 nM and the TGI (A498 renal) was 2500 nM. The GI50 (HOP-62 NSCLC) was 1280 nM and the TGI (HOP-62 NSCLC) was 8420 nM.
